For 17 molecules, IC50, response vs control in vivo and antitumor activity results are on record in patent publication US5912264A, “6-halo-or nitrate-substituted paclitaxels” (Bristol-Myers Squibb Company, priority 1998, dated 1999).

Experiment [1] has as its system HCT-116 human colon carcinoma cells. The experiment can be described thus: Cytotoxicity (in vitro) in HCT-116 human colon carcinoma cells, MTS assay. It counts as cell-based. The note with it: read-out: IC50 (nM) HCT 116. The method, then:
Cytoxicity was assessed in HCT-116 human colon carcinoma cells by MTS (3-(4,5-dimethylthiazol-2-yl)-5-(3-carboxymethoxyphenyl)-2-(4-sulphenyl)-2H-tetrazolium, inner salt) assay as reported in T. L. Riss, et. al., "Comparison of MTT, XTT, and a novel tetrazolium compound MTS for in vitro proliferation and chemosensitivity assays.," Mol. Biol. Cell 3 (Suppl.):184a, 1992. Cells were plated at 4,000 cell/well in 96 well microtiter plates and 24 hours later drugs were added and serial diluted. The cells were incubated at 37° form 72 hours at which time the tetrazolium dye, MTS at 333 μg/ml (final concentration), in combination with the electron coupling agent phenazine methosulfate at 25 μM (final concentration) was added. A dehydrogenase enzyme in live cells reduces the MTS to a form that absorbs light at […] which can be quantitated spectrophotometrically. The greater the absorbance the greater the number of live cells. The results are expressed as an IC50, which is the drug concentration required to inhibit cell proliferation (i.e. absorbance at 450 nm) to 50% of that of untreated control cells. The IC50 values for compounds evaluated in this assay are evaluated in Table I.
(In general: Formazan colour is commonly taken as a measure of viable cells.)

Experiment [2] relates to M109 lung carcinoma. The experiment in a line: Mice M109 Model (In-Vivo), median survival time % T/C. Set-up: species or system mice (Balb/c x DBA/2 F1 hybrid). The note with it: Mus musculus, ip, days 1, 5 and 9 or days 5 and 8 post-implant, median survival T/C x 100. The method, then: Balb/c x DBA/2 F1 hybrid mice were implanted intraperitoneally, as described by William Rose in Evaluation of Madison 109 Lung Carcinoma as a Modelfor Screening Antitumor Drugs, Cancer Treatment Reports, 65, No. 3-4 (1981), with 0.5 mL of a 2% (w/v) brei of M109 lung carcinoma.
Mice were treated with compounds under study by receiving intraperitoneal injections of various doses on either days 1, 5 and 9 post-tumor implant or days 5 and 8 post-implant. Mice were followed daily for survival until approximately 75-90 days post-tumor implant. One group of mice per experiment remained untreated and served as the control group.
Median survival times of compound-treated (T) mice were compared to the median survival time of the control (C) mice. The ratio of the two values for each compound-treated group of mice was multiplied by 100 and expressed as a percentage (i.e. % T/C) in the following Table II for representative compounds.

The conditions of experiment [3]: in vivo animal models; cited from earlier work.
Setting [4] is: HCT-116, 72 hours, MTS, inhibition of cell proliferation to 50% of untreated control.

The IC50 is the midpoint of a concentration-inhibition curve.

Like-named read-outs stand apart in the source and are kept apart here.

`CC(=O)O[C@H]1C(=O)[C@@]2(C)[C@H]([C@H](OC(=O)c3ccccc3)[C@]3(O)C[C@H](OC(=O)[C@H](O)[C@@H](NC(=O)c4ccccc4)c4ccccc4)C(C)=C1C3(C)C)[C@]1(OC(C)=O)CO[C@@H]1[C@@H](F)[C@@H]2O` [Ia, 6α-Fluoropaclitaxel]: in experiment [1] (HCT-116, 72 h), the IC50 was 1.4 nM.

Take `COCO[C@H]1[C@H](F)[C@H]2OC[C@@]2(OC(C)=O)[C@H]2[C@H](OC(=O)c3ccccc3)[C@]3(O)C[C@H](OC(=O)[C@H](O)[C@@H](NC(=O)c4ccccc4)c4ccccc4)C(C)=C([C@@H](OC(C)=O)C(=O)[C@@]21C)C3(C)C` [Ib, 7-O-Methoxymethyl-6α-Fluoropaclitaxel]: the IC50 in experiment [1] (HCT-116, 72 h) came out at 1.3 nM. Also, the response vs control in vivo at 100 mg/kg in experiment [2] came to 162%.

For the molecule `CSCO[C@H]1[C@H](F)[C@H]2OC[C@@]2(OC(C)=O)[C@H]2[C@H](OC(=O)c3ccccc3)[C@]3(O)C[C@H](OC(=O)[C@H](O)[C@@H](NC(=O)c4ccccc4)c4ccccc4)C(C)=C([C@@H](OC(C)=O)C(=O)[C@@]21C)C3(C)C` [Ic, 7-O-Meththiomethyl-6α-Fluoropaclitaxel], the concentration for half-maximal inhibition (IC50) in experiment [1] (HCT-116, 72 h) came out at 3.3 nM. For the same molecule, in experiment [2], the response vs control in vivo at 100 mg/kg was determined as 147%.

With `CO[C@H]1[C@H](F)[C@H]2OC[C@@]2(OC(C)=O)[C@H]2[C@H](OC(=O)c3ccccc3)[C@]3(O)C[C@H](OC(=O)[C@H](O)[C@@H](NC(=O)c4ccccc4)c4ccccc4)C(C)=C([C@@H](OC(C)=O)C(=O)[C@@]21C)C3(C)C` [Id, 7-O-Methyl-6α-Fluoropaclitaxel], in experiment [1] (HCT-116, 72 h), the IC50 was found to be 0.83 nM. In addition, the response vs control in vivo at 100 mg/kg in experiment [2] was 147%.

As to `CC(=O)O[C@H]1C(=O)[C@@]2(C)[C@H]([C@H](OC(=O)c3ccccc3)[C@]3(O)C[C@H](OC(=O)[C@H](O)[C@@H](NC(=O)c4ccccc4)c4ccccc4)C(C)=C1C3(C)C)[C@]1(OC(C)=O)CO[C@@H]1[C@@H](Br)[C@@H]2O` [Ie, 6α-Bromopaclitaxel], in experiment [1] (setting [4]), the IC50 is 2.6 nM. Besides, in experiment [2] (dose 200 mg/kg), the response vs control in vivo at 200 mg/kg was determined as 214%.

For `CC(=O)O[C@H]1C(=O)[C@@]2(C)[C@H]([C@H](OC(=O)c3ccccc3)[C@]3(O)C[C@H](OC(=O)[C@H](O)[C@@H](NC(=O)c4ccccc4)c4ccccc4)C(C)=C1C3(C)C)[C@]1(OC(C)=O)CO[C@@H]1[C@@H](O[N+](=O)[O-])[C@@H]2O` [If, paclitaxel-6α-nitrate], the IC50 in experiment [1] (HCT-116, 72 h) is 1.5 nM. In experiment [2], this molecule had a response vs control in vivo at 100 mg/kg of 132%.

For `CSCO[C@H]1[C@H](O[N+](=O)[O-])[C@H]2OC[C@@]2(OC(C)=O)[C@H]2[C@H](OC(=O)c3ccccc3)[C@]3(O)C[C@H](OC(=O)[C@H](O)[C@@H](NC(=O)c4ccccc4)c4ccccc4)C(C)=C([C@@H](OC(C)=O)C(=O)[C@@]21C)C3(C)C` [Ih, 7-O-Methylthiomethylpaclitaxel-6α-nitrate], the IC50 in experiment [1] (HCT-116, 72 h) was 7.35 nM. This molecule also returned a response vs control in vivo at 195 mg/kg in experiment [2] of 132%.

As to `COCO[C@H]1[C@H](O[N+](=O)[O-])[C@H]2OC[C@@]2(OC(C)=O)[C@H]2[C@H](OC(=O)c3ccccc3)[C@]3(O)C[C@H](OC(=O)[C@H](O)[C@@H](NC(=O)c4ccccc4)c4ccccc4)C(C)=C([C@@H](OC(C)=O)C(=O)[C@@]21C)C3(C)C` [Ii, 7-O-Methoxymethylpaclitaxel-6α-nitrate], the IC50 in experiment [1] (HCT-116, 72 h) was determined as 4.95 nM. This molecule also gave a response vs control in vivo at 195 mg/kg in experiment [2] of 141%.

As for `CC(=O)O[C@H]1C(=O)[C@@]2(C)[C@H]([C@H](OC(=O)c3ccccc3)[C@]3(O)C[C@H](OC(=O)[C@H](O)[C@@H](NC(=O)c4ccccc4)c4ccccc4)C(C)=C1C3(C)C)[C@]1(OC(C)=O)CO[C@@H]1[C@@H](Cl)[C@@H]2O` [Ij, 6-α-Chloropaclitaxel], the IC50 in experiment [1] (setting [4]) was 1.2 nM. The molecule also yielded a response vs control in vivo at 100 mg/kg in experiment [2] of 203%.

Take `CC(=O)O[C@H]1C(=O)[C@@]2(C)[C@H]([C@H](OC(=O)c3ccccc3)[C@]3(O)C[C@H](OC(=O)[C@H](O)[C@@H](NC(=O)OC(C)(C)C)c4ccccc4)C(C)=C1C3(C)C)[C@]1(OC(C)=O)CO[C@@H]1[C@@H](F)[C@@H]2O` [Ik, 3'N-desbenzoyl-3'N-t-Butoxycarbonyl-6α-Fluoropaclitaxel]: the 50% inhibitory concentration (IC50) in experiment [1] (HCT-116, 72 h) turned out to be 0.2 nM. Besides, the response vs control in vivo at 100 mg/kg in experiment [2] stood at 269%.

Regarding `COCO[C@H]1[C@H](F)[C@H]2OC[C@@]2(OC(C)=O)[C@H]2[C@H](OC(=O)c3ccccc3)[C@]3(O)C[C@H](OC(=O)[C@H](O)[C@@H](NC(=O)OC(C)(C)C)c4ccccc4)C(C)=C([C@@H](OC(C)=O)C(=O)[C@@]21C)C3(C)C` [Il, 3'N-desbenzoyl-3'N-t-Butoxycarbonyl-7-O-methoxymethyl-6a-Fluoropaclitaxel], the IC50 in experiment [1] (HCT-116, 72 h) came to 2.5 nM. In experiment [2], the response vs control in vivo at 50 mg/kg came to 187%.

For the molecule `CSCO[C@H]1[C@H](F)[C@H]2OC[C@@]2(OC(C)=O)[C@H]2[C@H](OC(=O)c3ccccc3)[C@]3(O)C[C@H](OC(=O)[C@H](O)[C@@H](NC(=O)OC(C)(C)C)c4ccccc4)C(C)=C([C@@H](OC(C)=O)C(=O)[C@@]21C)C3(C)C` [Im, 3'N-desbenzoyl-3'N-t-Butoxycarbonyl-7-O-methylthiomethyl-6α-Fluoropaclitaxel], the 50% inhibitory concentration (IC50) in experiment [1] (setting [4]) is 1 nM.

As for `CO[C@H]1[C@H](F)[C@H]2OC[C@@]2(OC(C)=O)[C@H]2[C@H](OC(=O)c3ccccc3)[C@]3(O)C[C@H](OC(=O)[C@H](O)[C@@H](NC(=O)OC(C)(C)C)c4ccccc4)C(C)=C([C@@H](OC(C)=O)C(=O)[C@@]21C)C3(C)C` [In, 3'N-desbenzoyl-3'N-t-Butoxycarbonyl-7-O-methyl-6α-Fluoropaclitaxel], the response vs control in vivo at 25 mg/kg in experiment [2] amounted to 144%.

For the molecule `CC(=O)O[C@H]1C(=O)[C@]2(C)C[C@@H](Cl)[C@H]3OC[C@@]3(OC(C)=O)[C@H]2[C@H](OC(=O)c2ccccc2)[C@]2(O)C[C@H](OC(=O)[C@H](O)[C@@H](NC(=O)c3ccccc3)c3ccccc3)C(C)=C1C2(C)C` [Io, 7-Deoxy-6-β-Chloropaclitaxel], in experiment [1] (setting [4]), the IC50 turned out to be 0.62 nM. In experiment [2], this molecule gave a response vs control in vivo at 25 mg/kg of 166%.

For `CC(=O)O[C@H]1C(=O)[C@]2(C)C[C@@H](Br)[C@H]3OC[C@@]3(OC(C)=O)[C@H]2[C@H](OC(=O)c2ccccc2)[C@]2(O)C[C@H](OC(=O)[C@H](O)[C@@H](NC(=O)c3ccccc3)c3ccccc3)C(C)=C1C2(C)C` [Ip, 7-Deoxy-6-β-Bromopaclitaxel], in experiment [1] (HCT-116, 72 h), the IC50 worked out at 0.72 nM. For the same molecule, in experiment [2], the response vs control in vivo at 50 mg/kg was found to be 172%.

In the case of `CC(=O)O[C@H]1C(=O)[C@]2(C)C[C@@H](I)[C@H]3OC[C@@]3(OC(C)=O)[C@H]2[C@H](OC(=O)c2ccccc2)[C@]2(O)C[C@H](OC(=O)[C@H](O)[C@@H](NC(=O)c3ccccc3)c3ccccc3)C(C)=C1C2(C)C` [Iq, 7-Deoxy-6-β-Iodopaclitaxel], in experiment [1] (HCT-116, 72 h), the IC50 worked out at 2.24 nM. Further, in experiment [2], the response vs control in vivo at 50 mg/kg came out at 129%.

`CC(=O)O[C@H]1C(=O)[C@@]2(C)[C@H]([C@H](OC(=O)c3ccccc3)[C@]3(O)C[C@H](OC(=O)[C@H](O)[C@@H](NC(=O)c4ccccc4)c4ccccc4)C(C)=C1C3(C)C)[C@]1(OC(C)=O)CO[C@@H]1C[C@@H]2O` [paclitaxel]: the IC50 in experiment [1] (HCT-116, 72 h) was in the range of 1.53 to 2.73 nM. In addition, the antitumor activity entry in experiment [3] was “excellent antitumor activity in in vivo animal models”.
